Patent US11850220B2 (Augusta University Research Institute, Inc., priority 2020, dated 2023)

Key:
[1] = system: acetic acid-induced abdominal writhing; assay: acetic acid-induced abdominal writhing technique (peripheral analgesic); format: in vivo; conditions: for Potency: Relative to indomethacin; for % Inhibition/protection / Writing reflex ± SEM: in vivo; for % Inhibition/protection: test concentration or dose not given here; for Writing reflex ± SEM: test concentration or dose not given here
hot plate = hot plate technique (central analgesic); format: in vivo; conditions: for Potency: Relative to indomethacin at 120 min.
[2] = system: carrageenan-induced paw edema; assay: carrageenan-induced paw edema technique (anti-inflammatory); format: in vivo; conditions: for Observed (1/property): 1/(% inhibition of edema thickness at 3 h effect); for Observed (1/property): test concentration or dose not given here; for Potency (% Inhibition relative to indomethacin at 3 h effect): test concentration or dose not given here
Source text: Anti-inflammatory properties of the ibuprofen-amino acid conjugate (5a-j) and ibuprofen-amino acid-4-aminophenol conjugates 7a-j were studied by the standard carrageenan-induced paw edema technique (Naumov, R. N. et al., Bioorg. Med. Chem. Lett. 2015, 25, 2314-2320; Tiwari, A. D. et al., Org. Biomol. Chem. 2014, 12, 7238-7249).

animal gastric mucosa = assay: ulcerogenic liability; format: in vivo; conditions: in vivo
[3] = % inhibition of edema thickness at 3 h effect, Table 7
[4] = anti-inflammatory property (% inhibition of edema at 3 h), Table 8

SMILES | Potency [1] | % Inhibition/protection [1] [%] | Writing reflex ± SEM [1] | melting point [°C] | % protection (hot plate; After 30 min.) | Latency period ± SEM (hot plate; After 30 min.) [s] | % protection (hot plate; After 60 min.) | Latency period ± SEM (hot plate; After 60 min.) [s] | % protection (hot plate; After 90 min.) | Latency period ± SEM (hot plate; After 90 min.) [s] | % protection (hot plate; After 120 min.) | Latency period ± SEM (hot plate; After 120 min.) [s] | Potency (hot plate) | Observed (1/property) ([2]; Table 7) | % inhibition of edema ([2]; 1 h) [%] | Mean edema thickness ([2]; 1 h) [mm] | % inhibition of edema ([2]; 2 h) [%] | Mean edema thickness ([2]; 2 h) [mm] | % inhibition of edema ([2]; 3 h) [%] | Mean edema thickness ([2]; 3 h) [mm] | also measured
CC(C)Cc1ccc(C(C)C(=O)NCCCC(=O)Nc2ccc(O)cc2)cc1 (centres unmarked) [Compound 7d, N-(4-Hydroxyphenyl)-4-(2-(4-isobutylphenyl)propanamido)butanamide] | 77 | 42.1 | 56.3 ± 0.7 | 140.6 | (49.2) % | 3.61 ± 0.05 | (27.8) % | 2.85 ± 0.04 | (15.0) % | 2.53 ± 0.02 | (12.3) % | 2.46 ± 0.09 | 22 | 0.01515 | 13 | 1.07 ± 0.06 | 25 | 1.14 ± 0.04 | 66 | 0.44 ± 0.03 | % inhibition of edema ([2]; 4 h): 13%; Mean edema thickness ([2]; 4 h): 1.09 ± 0.04 mm; % inhibition of edema ([2]; 24 h): 53%; Mean edema thickness ([2]; 24 h): 0.09 ± 0.01 mm; Observed property [2, 3]: 66%; Observed property [2, 4]: 66%; Potency (% Inhibition relative to indomethacin at 3 h effect) [2]: 83%
CC(C)Cc1ccc(C(C)C(=O)N[C@@H](C)C(=O)Nc2ccc(O)cc2)cc1 (stereo partly drawn) [Compound 7b, (2S)-N-(4-Hydroxyphenyl)-2-(2-(4-isobutylphenyl)propanamido)propanamide] | 132 | 72.6 | 26.7 ± 1.1 | 193.7 | (74.0) % | 4.21 ± 0.14 | (78.5) % | 3.98 ± 0.09 | (75.0) % | 3.85 ± 0.05 | (60.7) % | 3.52 ± 0.06 | 107 | 0.01613 | 21 | 0.97 ± 0.05 | 25 | 1.13 ± 0.06 | 62 | 0.50 ± 0.02 | % inhibition of edema ([2]; 4 h): 44%; Mean edema thickness ([2]; 4 h): 0.70 ± 0.03 mm; % inhibition of edema ([2]; 24 h): 5%; Mean edema thickness ([2]; 24 h): 0.18 ± 0.02 mm; Observed property [2, 3]: 62%; Observed property [2, 4]: 62%; Potency (% Inhibition relative to indomethacin at 3 h effect) [2]: 78%
CC(C)Cc1ccc(C(C)C(=O)N[C@@H](CCC(N)=O)C(=O)O)cc1 (stereo partly drawn) [Compound 5j, (2-(4-Isobutylphenyl)propanoyl)-L-glutamine] | 3 | 1.6 | 95.7 ± 2.4 | 67.4 | (22.3) % | 2.96 ± 0.02 | (25.1) % | 2.79 ± 0.03 | (45.5) % | 3.20 ± 0.04 | (46.1) % | 3.20 ± 0.03 | 81 | 0.01389 | 25 | 0.92 ± 0.05 | 45 | 0.83 ± 0.04 | 72 | 0.36 ± 0.02 | % Incidence of ulcer divided by 10 (animal gastric mucosa): 0; Average of ulcer number (animal gastric mucosa): 0; Average severity of ulcer (animal gastric mucosa): 0; Number of animals with ulcer (animal gastric mucosa): 0; Ulcer index (animal gastric mucosa): 0; % inhibition of edema ([2]; 4 h): 8%; Mean edema thickness ([2]; 4 h): 1.15 ± 0.06 mm; % inhibition of edema ([2]; 24 h): 47%; Mean edema thickness ([2]; 24 h): 0.10 ± 0.03 mm; Observed property [2, 3]: 72%; Observed property [2, 4]: 72%; Potency (% Inhibition relative to indomethacin at 3 h effect) [2]: 90%
CC(C)Cc1ccc(C(C)C(=O)NCCCC(=O)O)cc1 (centres unmarked) [Compound 5d, 4-(2-(4-Isobutylphenyl)propanamido)butanoic acid] | 7 | 3.8 | 93.6 ± 2.6 | 78.3 | (34.7) % | 3.26 ± 0.12 | (19.3) % | 2.66 ± 0.04 | (13.2) % | 2.49 ± 0.03 | (8.2) % | 2.37 ± 0.01 | 14 | 0.01667 | 22 | 0.96 ± 0.06 | 28 | 1.09 ± 0.07 | 60 | 0.52 ± 0.04 | % inhibition of edema ([2]; 4 h): 13%; Mean edema thickness ([2]; 4 h): 1.09 ± 0.05 mm; % inhibition of edema ([2]; 24 h): 58%; Mean edema thickness ([2]; 24 h): 0.08 ± 0.02 mm; Observed property [2, 3]: 60%; Observed property [2, 4]: 60%; Potency (% Inhibition relative to indomethacin at 3 h effect) [2]: 75%
